Reference: patent publication US12596125B2, “Nano-rheological biomarkers for early and improved follow-up of pathologies associated to RBC deformability alteration” (ALCEDIAG, priority 2019, dated 2026)
Where “and” joins values, the source holds several entries; their conditions need not be identical. Identical values can stand only once.

What was measured:
[1] = Sensitivity of rotor fluorescence to pH and ionic strength (NaCl); type: physicochemical; settings: 37 °C, rotor 15 μM; for dependency of fluorescence intensity on NaCl concentration (ionic strength): NaCl 0.1-200 mM, water-glycerol 50%-50%; for dependency of fluorescence intensity on pH: pH 3-8, citric acid/phosphate, water-glycerol 70%-30%
From the text: (§1) The fluorescent response spectra of the rotors has been measured by varying four parameters • Viscosity, with water-glycerol solutions with increasing relative concentration (see FIGS. 2A-2D); • Electrostatic and ionic perturbations, with increasing NaCl concentration in a water-glycerol solution (50%-50%) (see FIG. 3A)); • pH, with buffered solutions Citric acid/Phosphate pH; 3<pH<8 in a water-glycerol solution (70%-30%) (see FIG. 3B); and • Molecular density and highly interacting (including hydrophobic) environment using a gradient BSA (bovine serum albumin) (see FIG. 4A-4D).
(§2) The pH was assayed from 3 (corresponding to the most acidic zones) to 8. For viscosity, we used literature data agreeing on apparent values in various cellular media, ranging from 1.5 mPa·s in the cytoplasm up to 140 mPa·s in the vesicles. In our studies, the MR concentration was set to 15 μM under the expected toxicity onset [Haidekker (2010a)]. One key remark, as any fluorescent molecule, signal intensity is also a function of its concentration. It is therefore very important to control the concentration of molecular rotor or, if when impossible, to be able to measure the concentration regardless of the viscosity.

[2] = Excitation-emission matrix (spectral response) of molecular rotors; type: physicochemical
Description: Excitation wavelength in abscissa, emission in ordinates, in nanometer (nm)). The rotors are diluted in a water/glycerol solution at a concentration 15 μM.
FIGS. 9a-9f: Excitation emission matrices of the molecular rotor DASPI, at temperature 25° C., at concentration 3.3 μM in (a) DMSO (η=2 mPa·s), (b) Ethylene glycol (η=13.5 mPa·s), (c) Glycerol (η=945 mPa·s) and (d,e) Hemoglobin in PBS (1000× dilution, different scale, η=1 mPa·s). The Fluorescence EEM of hemoglobin alone (f) was also measured to give evidence that there is no contribution of hemoglobin in the DASPI range of interest. […] In hemoglobin solutions however (d,e), the emission peak value is lower than in DMSO for similar viscosities because of the high absorbance of the solution.
The excitation-emission matrix of these 4 rotors, diluted in a glycerol/water solution (purely viscous fluid), have been measured using a SYNERGY H1 (Hybrid Multi-Mode reader, BioTek).
In a first step, fluorescence Excitation Emisson Matrices (EMMs) of DASPI were measured in selected solvents, at controlled temperature 25·C: DMSO, Ethylene Glycol, Glycerol and hemoglobin/PBS solutions (dilution 1000×). […] The Fluorescence EEM of hemoglobin alone (dilution 1000× in PBS) was also measured in the DASPI range of interest to give evidence that there is no contribution of hemoglobin in this range (f).

[3] = Fluorescence intensity as a function of viscosity (Förster-Hoffmann equation); type: physicochemical
Description: FIGS. 10a-10b: Emission peak intensity (fluorescence microscopy, excitation at 488 nm, emission 595±30 nm) of the molecular rotor DASPI at concentration 0.01 mM, 0.1 mM, 1 mM in (left) ethylene glycol/glycerol solutions and (right) aqueous glycerol solutions with increasing viscosity. The solutions temperature was fixed at T=X ° C. The fluorescence intensity increases with the solution viscosity according to the Förster-Hoffmann equation log φ=C+b log η, with solvent-dependent parameters b and C; Ethylene glycol/glycerol solutions: C=94,641,2206± and b=0.69±0.01 and aqueous glycerol solutions: C=74,344,1590± and b=0.70±0.01.
as §1, §2
The second step was to assess the sensitivity of DASPI to the local viscosity of the surrounding medium. More generally, fluorescent MRs photophysical sensitivity depends on their interaction with the environment, characterized by viscosity, polarity and solubility. […] Here we have investigated the DASPI emission intensity (fluorescence microscopy, excitation at 488 nm, emission at 595±30 nm) in ethylene glycol/glycerol solutions (viscosity between 10-200 mPa·s) and aqueous solutions of glycerol (viscosity between 2-200 mPa·s). In each solution, the relative concentration of both solvents was varied to adjust the viscosity of the resulting mixture, at temperature T=X° C. The viscosity was measured in situ by microrheology measurements, just before fluorescence intensity measurements. […]

red blood cells (RBCs) [4] = experiment: Fluorescence of rotor in healthy and glutaraldehyde-stiffened red blood cells (confocal / epi-fluorescence microscopy); type: cell-based; settings: glutaraldehyde 0-2% per volume of cells; 0.4 mM rotor, 1 hour; excitation 488 nm, detection 565-625 nm
Description: FIG. 6: Left: Suspension of healthy red blood cells and red blood cells stiffened with glutaraldehyde, in a PBS solution, using confocal microscopy (×40 objective, excitation at 488 nm, detection between 542-626 nm). The molecular rotor tDASMP was introduced into the solution according the protocol described in Example 2.
As a next step towards the rheological characterization of RBCs with MRs, we then imaged a suspension of healthy and artificially rigidified RBCs (by incubation during 10 min in a 1% (v/v) Glutaraldehyde solution in PBS) treated with tDASMP. […] Confocal microscopy allows to measure fluorescence profiles across RBCs.
In a second step, a quantification of the fluorescence response as a function of the degree of rigidification of RBCs can be performed. […]
For visualization, samples were placed between a glass slide and coverslip separated by a 250 μm spacer and initially incubated in a PBS solution supplemented with 1% BSA (Bovine Serum Albumin, Sigma-Aldrich) to prevent RBC adhesion. Observation was made with a Leica microscope in epi-fluorescence mode with excitation at 488 nm and detection at 565-625 nm. Images recorded with a sCMOS fast camera (OrcaFlash4.0 v2+, Hamamatsu Photonics France S.A.R.L., Massy, France) allowed to measure the mean fluorescence intensity of RBCs rescaled by the background fluorescence level.

red blood cells (RBCs) [5] = experiment: Penetration and localization of molecular rotor in red blood cells by confocal microscopy; type: cell-based; settings: for penetration of the rotor into RBCs: healthy and rigidified RBCs
Description: FIG. 12: Bright field image and confocal z-stacks obtained using confocal microscopy (X40 objective, excitation at 488 nm, detection between 542-626 nm) for three healthy RBCs with different orientations in a 1 mM DASPI solution. The z position of the slices is indicated. […] The mean intensity was measured in the depicted color boxes and each data point corresponds to a confocal slice (0.5 μm distance). As a next step towards the rheological characterization of RBCs with MRs, we then imaged a suspension of healthy and artificially rigidified RBCs (by incubation during 10 min in a 1% (v/v) Glutaraldehyde solution in PBS) treated with […]. Healthy and rigidified RBC suspensions were mixed and the resulting suspension was observed using confocal microscopy with an excitation at 488 nm and detection between 546 nm and 626 nm. An image corresponding to the mid-cross section of the RBC after cells have sedimented on the bottom window of the observation chamber is shown in FIG. 6. […] Confocal microscopy allows to measure fluorescence profiles across RBCs. The localization of the DASPI molecular rotor in healthy red blood cells was studied by confocal microscopy. Confocal images were acquired during the slow sedimentation of the RBCs with different orientations in the observation microchannel. […] Beyond the membrane, in the cytosol, the signal from DASPI was homogeneous in the observation plane, regardless of the z-position and orientation of the cell. Confocal microscopy allows us to unambiguously separate the fluorescence response from the membrane and cytosol. In fact, as soon as the upper and lower membranes are out of the depth of field ( 600 nm), they no longer contribute to the field of vision. […] By scanning the different parts of the red blood cells, we measure that the DASPI fluorescence signal is present throughout the whole red blood cell, over a distance which corresponds approximately (given the depth of field) to the typical known sizes of the red blood cell: diameter 8 μm (b), thickness on the edge 3 μm (a), thickness in the biconcave zone 1 μm (a).

hemoglobin solutions = biological target: T1, hemoglobin solutions (Homo sapiens, UniProt P68871+P69905); experiment: Emission intensity of rotor in hemoglobin solutions of increasing viscosity; type: physicochemical; settings: viscosity 3.4-9.2 mPa·s, temperature 17-34 °C
T1 construct: The RBC pellet was exposed to 3 freeze-thaw cycles (−80° C. to 37° C.) to lyse RBC membranes; from tissue; host or cells: red blood cells from blood samples (lysate, membranes extracted with CCl4)
T1 sequence (P69905 2-142 limits assumed): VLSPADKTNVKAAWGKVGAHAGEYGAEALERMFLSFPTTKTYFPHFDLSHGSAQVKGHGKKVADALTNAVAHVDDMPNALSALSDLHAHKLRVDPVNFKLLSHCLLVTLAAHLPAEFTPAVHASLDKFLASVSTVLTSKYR
T1 sequence (P68871 2-147 limits assumed): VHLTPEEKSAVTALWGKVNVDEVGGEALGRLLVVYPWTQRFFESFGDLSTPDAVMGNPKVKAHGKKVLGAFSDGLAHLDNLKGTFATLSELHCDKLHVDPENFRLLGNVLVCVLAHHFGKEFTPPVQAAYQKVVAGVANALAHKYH
Description: Red blood cells were washed three times in PBS buffer in order to prepare hemoglobin solutions from blood samples. After a final centrifugation at 1200 g for 10 min, all the supernatant was removed. The RBC pellet was exposed to 3 freeze-thaw cycles (−80° C. to 37° C.) to lyse RBC membranes. Membrane residues were then extracted by addition of CCl4 to the lysate (⅓ of the volume), strong agitation and ultra-centrifugation at 10000 g for 15 min. The hemoglobin concentration in the final solution was measured by colorimetry (MAK 115 Hemoglobin Assay Kit from Sigma-Aldrich).
We studied the emission intensity of tDASMP in hemoglobin solutions of increasing viscosity. The temperature of the sample was varied between 17° C. and 34° C.

## N#C/C(=C\c1cc2c3c(c1)CCCN3CCC2)C(=O)O [CCVJ, Carboxycyanovinyl-Julolidine]
[1]
  dependency of fluorescence intensity on NaCl concentration (ionic strength): no significant dependency
  dependency of fluorescence intensity on pH: no significant dependency

## N#CC(C#N)=Cc1cc2c3c(c1)CCCN3CCC2 [DCVJ, Dicyanovinyl-Julolidine]
[1]
  dependency of fluorescence intensity on NaCl concentration (ionic strength): no significant dependency
  dependency of fluorescence intensity on pH: no significant dependency

## Cc1ccc2c(c1)sc(-c1ccc(N(C)C)cc1)[n+]2C.[Cl-] [Tht, Thioflavine T]
[2]; water/glycerol solution, rotor 15 μM
  excitation/emission peaks: around 380/440 and 430/490
[3]; water-glycerol solutions, viscosity 1-200 mPa·s
  excitation/emission peak following the Förster-Hoffmann equation: 430/490
[1]
  dependency of fluorescence intensity on NaCl concentration (ionic strength): no significant dependency
  dependency of fluorescence intensity on pH: no significant dependency

## CN(C)c1ccc(C=Cc2cc[n+](C)cc2)cc1.[I-] [tDASMP, trans-4-[4-(Dimethylamino)styryl]-1-methylpyridinium iodide]
[2]; DMSO, ethylene glycol, glycerol, hemoglobin/PBS, 25 °C, 3.3 μM
  fluorescence excitation peak: around 480 nm
[2]; hemoglobin in PBS, 1000× dilution
  interference of excitation-emission spectrum with hemoglobin fluorescence: does not interfere with the intrinsic hemoglobin fluorescent spectrum
[2]; rotor of Examples 1-2
  emission: 580-620 nm
  excitation peak: around 490 nm
[3]; aqueous glycerol solutions, excitation 488 nm, emission 595±30 nm
  Förster-Hoffmann exponent b: 0.70±0.01
[3]; both ethylene glycol/glycerol and glycerol/water solutions
  Förster-Hoffmann exponent b: around 0.7
[3]; ethylene glycol/glycerol solutions, excitation 488 nm, emission 595±30 nm
  Förster-Hoffmann exponent b: 0.69±0.01
[1]
  dependency of fluorescence intensity on NaCl concentration (ionic strength): no significant dependency
  dependency of fluorescence intensity on pH: no significant dependency
Red blood cells (RBCs) [4]
  mean fluorescence intensity of RBCs versus RBC rigidity: increasing function of RBC rigidity
Red blood cells (RBCs) [5]
  distribution of the rotor inside RBCs: uniformly distributed throughout the volume of RBCs
  penetration of the rotor into RBCs: able to cross the membrane and penetrate within the RBCs
Red blood cells (RBCs) [5]; listed as DASPI
  penetration of the rotor into RBCs: spontaneously penetrates into red blood cells
Hemoglobin solutions
  fluorescence emission intensity versus viscosity of hemoglobin solutions: increase in fluorescence emission intensity
